Data reported in US20100168112A1, “2-Substituted and 4-substituted aryl nitrone compounds” (RENOVIS, INC., priority 2004, published 2010).
pEC50: −log10 of the molar value.

Assays:
[1] = Microsomal stability in human liver microsomes; assay type: in vitro ADME; details: NADPH, 37° C.
Protocol: Frozen Sprague-Dawley rat liver microsomes (RLM) were thawed on ice and gently mixed before use. The final reaction mixture consisted of a nitrone compound of this invention (at ˜500 ng/ml), 1 mM NADPH, and 0.5 mg/ml of RLM protein in 0.1 M PBS (pH7.4), with organic solvent concentration not exceeding 1% (v/v). Per set of incubations, a positive control compound was included. The mixture was first pre-incubated 3 to 5 minutes at 37° C. without NADPH, and the reaction was then initialized by the addition of NADPH and incubated at 37° C. for up to 30 minutes. An aliquot of the reaction mixture was sampled at the initiation of the reaction and at designated time after reaction started. The drawn samples were quenched with acetonitrile, diluted with mobile phase to ensure the detection of test article in the linear range, and analyzed by LC/MS/MS. Half-life or percentage of remaining nitrone compound was calculated using standard methods. A similar method, or a slight variation of it, was used to test the stability of nitrones in human liver microsomes (HLM).

[2] = DPPH free radical-scavenging/antioxidant assay; assay type: biochemical; details: 50 μM DPPH in 80% methanol; 24 h time point; read-out: EC50 (concentration at which a compound reduces by 50% the peak absorbance of DPPH at 520 nm)
Protocol: Nitrone compounds of the present invention were tested for their free-radical scavenging/antioxidant activity in an in vitro assay that is accepted by those skilled in the art as a model for conditions involving the generation of free radicals. The assay is based on a reaction between a free-radical donor, 2,2-diphenyl-1-picrylhydrazyl (DPPH), and a radical scavenger/antioxidant to be tested for free-radical scavenging activity. Upon donation of the free-radical electron to the purported radical scavenger, the peak visible absorbance of DPPH (515-520 nm) decreases so that optical density readings at this part of the visual spectrum reflect the progression of the following reaction:
where AH is a hypothetical radical scavenger/antioxidant. The assay is based on a protocol originally detailed in Brand-Williams, W. et al., 1995, Use of a Free Radical Method to Evaluate Antioxidant Activity, Lebensm. Wiss. Technol., 28:25-30, with further modifications described in L. R. Fukumoto and G. Mazza, 2000, Assessing Antioxidant and Prooxidant Activities of Phenolic Compounds, J. Agric. Food Chem., 48:3597-3604.
The antioxidant assay was performed using Perkin-Elmer 96-well, clear-bottom, black-wall plates (ordered from E & K Scientific Products) and a Tecan Safire absorbance plate reader. The positive controls were Trolox (6-hydroxy-2,5,7,8-tetramethylchromane-2-carboxylic acid, Sigma-Aldrich), BHA (2(3)-tert-butylhydroquinone monomethyl ether, Sigma-Aldrich), PBN (C-(phenyl)-N-(tert-butyl)nitrone, Sigma-Aldrich) and S-PBN (C-(2-sulfophenyl)-N-(tert-butyl)nitrone, sodium salt, prepared according to E. G. Janzen and R. V. Shetty, 1979, Tetrahedron Lett., 35: 3229-32), and the negative control (i.e., vehicle) was DMSO. In brief, 2 μL of 100× DMSO stock of the desired final concentration of each control or nitrone compound to be tested in the same batch was added to a separate well. To each well was then added 198 μL of a freshly made 50 μM DPPH (Sigma-Aldrich) solution in 80% methanol using a multi-channel pipette. The absorbance was immediately read on the plate reader at 520 nm and thereafter read periodically to assess kinetics until all reactions reached completion (i.e., steady state). Since the steady-state point was 24 h, the assay results are shown from the 24 h time point. The absorbance at 520 nm (OD) was plotted versus the concentrations of the controls and nitrone compounds to assess dose-response and interpolate the EC50 values of the controls and test compounds.

[3] = Pharmacokinetic evaluation following intravenous and oral administration in rats; assay type: in vivo; details: male, Sprague-Dawley; for Cmax / Tmax / bioavailability: 5 mg/kg; for Cmax: rat plasma; for Cmax / Tmax: oral gavage, 2 mg/mL at 2.5 mL/kg; for clearance / Vd / Tmax / bioavailability / half-life: plasma, rat; for clearance / Vd / half-life: 1 mg/kg; for clearance / Vd: intravenous administration, 1 mg/mL at 1.0 mL/kg; for clearance: read-out: CI (clearance) (converted); for Vd: read-out: Vd (volume of distribution); for bioavailability: po 2 mg/mL at 2.5 mL/kg vs iv 1 mg/mL at 1.0 mL/kg, dose-normalized, read-out: F (%) oral bioavailability; for half-life: intravenous, read-out: T1/2 elimination half life (converted)
Protocol: Male Sprague-Dawley rats were given at least 24 hours acclimation before experiment initiation. During acclimation period, all animals received food and water ad libitum. However, food (not water) was removed from the animal's cages up to 12 hours before initiation of the experiment. During the first 4 hours of experimentation, the animals received only water ad libitum. Two to three animals for iv and three animals for oral administration were tested. For iv formulation nitrone compounds of this invention were dissolved (1 mg/mL) in a mixture of 5% dimethyl acetamide (v/v), 0 to 4% Tween 80 (v/v), 10 to 40% PEG 400 (v/v) and the rest percentage of water (v/v). For oral formulation nitrone compounds of this invention were dissolved (2 mg/mL) in a mixture of 4% of 10% Tween in water and 96% of 0.5% carboxymethyl cellulose (medium viscosity) in water; or 4% of 10% Tween in water, 48% of 0.5% carboxymethyl cellulose (medium viscosity) in water, and 48% of 0.5% Hydroxypropyl Methylcellulose/0.2% Sodium Lauryl Sulfate in water. These formulations were stored at 5° C. until the experiment. Formulations were then stir-mixed at least half an hour before dosing. Exactly 200 μL of each left-over formulation was diluted with CH3CN/H2O for concentration analysis. The animals were weighed before dosing. The body weight was used to calculate the true dose for each animal:
IV dosing: • Dose volume (mL)=1.0 mL/kg The intravenous dose was administered through the jugular vein catheter or tail vein in less than 1 minute.
PO dosing: • Dose volume (mL)=2.5 mL/kg The oral dose was administered by oral gavage.
For IV dosing, blood samples were collected (using a pre-heparinized syringe) via the carotid artery or jugular vein catheter at t=2, 5, 15, 30, 60, 120, 180, 360, and 480 minutes post dosing. For PO dosing, blood samples were collected (using a pre-heparinized syringe) via the carotid artery or jugular vein catheter before dosing and at t=5, 15, 30, 60, 120, 180, 360, and 480 minutes post dosing. For some nitrone compounds a 1440 minutes (24 hours) sample was also taken for both IV and PO administrations. About 250 μL of blood was obtained at each time point from the animals. Equal volumes of 0.9% normal saline were replaced to prevent dehydration. The whole blood samples were maintained on ice until centrifugation. Blood samples were then centrifuged at 14,000 rpm for 10 minutes at 4° C. and the upper plasma layer transferred into a clean vial and stored at −80° C. The resulting plasma samples were then analyzed by mass spectroscopy using standard methods.
All the samples from above assays were analyzed on a PE-Sciex API 3000 triple quadrupole with a Turbo Ion Spray source. Nitrone compounds of this invention were separated from the matrix via a linear gradient reverse-phase chromatography using a C18 column, such as Thermo BDS Hypersil C18 (100×4.6 mm, 5 micron particle, 120A pore size). The mobile Phases were:
Nitrone compounds were detected by the mass spectrometer in the positive ion multiple reaction monitoring mode (MRM). For quantitative analysis, a standard curve was prepared by spiking a stock solution of the nitrone compound to the appropriate matrix to achieve a quantitation curve range and analyzed the standards in the same manner as the samples.
Pharmacokinetic parameters of the aryl nitrone compounds were determined by a noncompartmental analysis using WinNonlin-Pro (Version 4.1, Pharsight Corporation). Average and standard deviation of the parameters were calculated using standard formulas in Microsoft Excel.

CC(C)/[N+]([O-])=C/c1ccc(S(=O)(=O)N(C)c2ccccc2)cc1 [Compound 55, N-Isopropyl-C-[4-(methyl-phenyl-sulfamoyl)phenyl]nitrone]
% of Nitrone Remaining at 30 min (Human) [1]: 82%

CCN(CC)S(=O)(=O)c1ccc(/C=[N+](\[O-])C2CCCCC2)cc1 [Compound 52, N-Cyclohexyl-C-(4-diethylsulfamoylphenyl)nitrone]
% of Nitrone Remaining at 30 min (Human) [1]: 64%

CNS(=O)(=O)c1ccccc1/C=[N+](\[O-])C(C)(C)C [Compound 47, N-tert-Butyl-C-(2-methylsulfamoyl-phenyl)nitrone]
pEC50 [2]: < 3.00 | % of Nitrone Remaining at 30 min (Human) [1]: 100%

CC(C)(C)/[N+]([O-])=C/c1ccccc1S(=O)(=O)NCc1ccccc1 [Compound 49, N-tert-Butyl-C-(2-benzylsulfamoyl-phenyl)nitrone]
pEC50 [2]: < 3.00 | % of Nitrone Remaining at 30 min (Human) [1]: 0%

CCN(CC)S(=O)(=O)c1ccc(/C=[N+](\[O-])C(C)C)cc1 [Compound 51, N-Isopropyl-C-(4-diethylsulfamoylphenyl)nitrone]
pEC50 [2]: < 3.00 | % of Nitrone Remaining at 30 min (Human) [1]: 94%

CN(c1ccccc1)S(=O)(=O)c1ccc(/C=[N+](\[O-])Cc2ccccc2)cc1 [Compound 57, N-Benzyl-C-[4-(methyl-phenyl-sulfamoyl)phenyl]nitrone]
pEC50 [2]: < 3.00 | % of Nitrone Remaining at 30 min (Human) [1]: 14%

CC(C)(C)NS(=O)(=O)c1ccc(/C=[N+](\[O-])C(C)(C)C)cc1 [Compound 58, N-tert-Butyl-C[4-(tert-butylsulfamoyl)phenyl]nitrone]
pEC50 [2]: < 3.00 | % of Nitrone Remaining at 30 min (Human) [1]: 100%

CCN(CC)S(=O)(=O)c1ccc(/C=[N+](\[O-])C(C)(C)C)cc1 [Compound 50, N-tert-Butyl-C-(4-diethylsulfamoylphenyl)nitrone]
pEC50 [2]: < 3.00 | % of Nitrone Remaining at 30 min (Human) [1]: 86%

CC(C)/[N+]([O-])=C/c1ccc(S(=O)(=O)NC(C)(C)C)cc1 [Compound 59, N-Isopropyl-C-[4-(tert-butylsulfamoyl)phenyl]nitrone]
pEC50 [2]: < 3.00 | % of Nitrone Remaining at 30 min (Human) [1]: 100%

CN(c1ccccc1)S(=O)(=O)c1ccc(/C=[N+](\[O-])C2CCCCC2)cc1 [Compound 56, N-Cyclohexyl-C-[4-(methyl-phenyl-sulfamoyl)phenyl]nitrone]
pEC50 [2]: < 3.00 | % of Nitrone Remaining at 30 min (Human) [1]: 33%

CC(C)(C)/[N+]([O-])=C/c1ccc(S(C)(=O)=O)nc1 [Compound 80, N-tert-Butyl-C-(6-methanesulfonyl-pyridine-3-yl)nitrone]
% of Nitrone Remaining at 30 min (Human) [1]: 94.5% | Cmax [3]: 3.94 µg/mL | clearance [3]: 0.21 L/h/kg | Vd [3]: 0.52 L/kg | Tmax [3]: 30 min | bioavailability [3]: 54.7% | half-life [3]: 103 min

CC(C)(C)NS(=O)(=O)c1ccccc1/C=[N+](\[O-])C(C)(C)C [Compound 48, N-tert-Butyl-C-(2-tert-butylsulfamoyl-phenyl)nitrone]
pEC50 [2]: < 3.00 | % of Nitrone Remaining at 30 min (Human) [1]: 100% | Cmax [3]: 0.862 µg/mL | clearance [3]: 1.97 L/h/kg | Vd [3]: 1.39 L/kg | Tmax [3]: 15 min | bioavailability [3]: 55.3% | half-life [3]: 29.4 min

CN(c1ccccc1)S(=O)(=O)c1ccc(/C=[N+](\[O-])C(C)(C)C)cc1 [Compound 54, N-tert-Butyl-C44-(methyl-phenyl-sulfamoyl)phenylInitrone]
pEC50 [2]: < 3.00 | % of Nitrone Remaining at 30 min (Human) [1]: 62% | Cmax [3]: 0.18 µg/mL | clearance [3]: 2.15 L/h/kg | Vd [3]: 3.21 L/kg | Tmax [3]: 15 min | bioavailability [3]: 13.2% | half-life [3]: 61.8 min

CC(C)(C)NS(=O)(=O)c1ccc(/C=[N+](\[O-])Cc2ccccc2)cc1 [Compound 61, N-Benzyl-C-[4-(tert-butylsulfamoyl)phenyl]nitrone]
pEC50 [2]: < 3.00 | % of Nitrone Remaining at 30 min (Human) [1]: 95%

CS(=O)(=O)c1ccc(/C=[N+](\[O-])Cc2ccccc2)cn1 [Compound 81, N-Benzyl-C-(6-methanesulfonyl-pyridine-3-yl)nitrone]
% of Nitrone Remaining at 30 min (Human) [1]: 90.5%

CC(C)(C)NS(=O)(=O)c1ccc(/C=[N+](\[O-])C2CCCCC2)cc1 [Compound 60, N-Cyclohexyl-C-[4-(tert-butylsulfamoyl)phenyl]nitrone]
pEC50 [2]: < 3.00 | % of Nitrone Remaining at 30 min (Human) [1]: 100% | Cmax [3]: 0.00159 µg/mL | clearance [3]: 3.8 L/h/kg | Vd [3]: 2.84 L/kg | Tmax [3]: 8.4 min | bioavailability [3]: 0.4% | half-life [3]: 30.6 min

CCN(CC)S(=O)(=O)c1ccc(/C=[N+](\[O-])Cc2ccccc2)cc1 [Compound 53, N-Benzyl-C-(4-diethylsulfamoylphenyl)nitrone]
% of Nitrone Remaining at 30 min (Human) [1]: 65%
